The source made the active and inactive calls. No rule for the calls is given here. Where a SMILES comes first, the peptide text is derived from it.

The series concerns CCRIS mutagenicity, Ames/micronucleus/aberration tests. As to the kind of experiment: CCRIS mutagenicity studies.
Where [1] appears, read: Test System: AMES SALMONELLA TYPHIMURIUM, Strain/Indicator: TA98, Metabolic Activation: NONE, Method: PREINCUBATION
Where [2] appears, read: Test System: AMES SALMONELLA TYPHIMURIUM, Strain/Indicator: TA100, Metabolic Activation: NONE, Method: PREINCUBATION
Setting [3] is: Test System: AMES SALMONELLA TYPHIMURIUM, Strain/Indicator: TA98, Metabolic Activation: NONE, Method: STANDARD PLATE.
Setting [4] is: Test System: AMES SALMONELLA TYPHIMURIUM, Strain/Indicator: TA100, Metabolic Activation: NONE, Method: STANDARD PLATE.
Where [5] appears, read: Test System: AMES SALMONELLA TYPHIMURIUM, Strain/Indicator: TA1535, Metabolic Activation: NONE, Method: STANDARD PLATE.
[6] abbreviates: Test System: AMES SALMONELLA TYPHIMURIUM, Strain/Indicator: TA98, Metabolic Activation: RAT, LIVER, S-9, AROCLOR 1254, Method: STANDARD PLATE.
Where [7] appears, read: Test System: AMES SALMONELLA TYPHIMURIUM, Strain/Indicator: TA100, Metabolic Activation: RAT, LIVER, S-9, AROCLOR 1254, Method: STANDARD PLATE.
Setting [8] is: Test System: AMES SALMONELLA TYPHIMURIUM, Strain/Indicator: TA1535, Metabolic Activation: RAT, LIVER, S-9, AROCLOR 1254, Method: STANDARD PLATE.
Setting [9] is: Test System: AMES SALMONELLA TYPHIMURIUM, Strain/Indicator: TA1537, Metabolic Activation: NONE, Method: STANDARD PLATE.
[10] abbreviates: Test System: AMES SALMONELLA TYPHIMURIUM, Strain/Indicator: TA1537, Metabolic Activation: RAT, LIVER, S-9, AROCLOR 1254, Method: STANDARD PLATE.

Take `Cc1ccc2c(c1O)C(=O)c1ccccc1C2=O`: the mutagenic call is “inactive; negative” under setting [1]; “active; positive” (Test System: AMES SALMONELLA TYPHIMURIUM, Strain/Indicator: TA98, Metabolic Activation: RAT, LIVER, S-9, PCB, Method: PREINCUBATION); “inactive; negative” under setting [2]; “active; positive” (Test System: AMES SALMONELLA TYPHIMURIUM, Strain/Indicator: TA100, Metabolic Activation: RAT, LIVER, S-9, PCB, Method: PREINCUBATION).
As for `[Cl][Pd-2]([Cl])([Cl])[Cl]`, the mutagenic call runs as follows: (Test System: AMES SALMONELLA TYPHIMURIUM, Strain/Indicator: TA97A, Metabolic Activation: NONE, Method: STANDARD PLATE) “inactive; negative”; (Test System: AMES SALMONELLA TYPHIMURIUM, Strain/Indicator: TA97A, Metabolic Activation: RAT, LIVER, S-9, PHENOBARBITAL AND 5,6-BENZOFLAVONE, Method: STANDARD PLATE) “inactive; negative”; (Test System: AMES SALMONELLA TYPHIMURIUM, Strain/Indicator: TA97A, Metabolic Activation: RAT, LIVER, S-9, PHENOBARBITAL AND BETA-NAPHTHOFLAVONE, Method: STANDARD PLATE) “inactive; negative”; under setting [1], “inactive; negative”; under setting [3], “inactive; negative”; (Test System: AMES SALMONELLA TYPHIMURIUM, Strain/Indicator: TA98, Metabolic Activation: RAT, LIVER, S-9, AROCLOR 1254, Method: PREINCUBATION) “inactive; negative”. Besides, the mutagenic call runs as follows: (Test System: AMES SALMONELLA TYPHIMURIUM, Strain/Indicator: TA98, Metabolic Activation: RAT, LIVER, S-9, PHENOBARBITAL AND 5,6-BENZOFLAVONE, Method: STANDARD PLATE) “inactive; negative”; (Test System: AMES SALMONELLA TYPHIMURIUM, Strain/Indicator: TA98, Metabolic Activation: RAT, LIVER, S-9, PHENOBARBITAL AND BETA-NAPHTHOFLAVONE, Method: STANDARD PLATE) “inactive; negative”; under setting [2], “inactive; negative”; under setting [4], “inactive; negative”; (Test System: AMES SALMONELLA TYPHIMURIUM, Strain/Indicator: TA100, Metabolic Activation: RAT, LIVER, S-9, AROCLOR 1254, Method: PREINCUBATION) “inactive; negative”; (Test System: AMES SALMONELLA TYPHIMURIUM, Strain/Indicator: TA100, Metabolic Activation: RAT, LIVER, S-9, PHENOBARBITAL AND 5,6-BENZOFLAVONE, Method: STANDARD PLATE) “inactive; negative”. For the same molecule, the mutagenic call runs as follows: (Test System: AMES SALMONELLA TYPHIMURIUM, Strain/Indicator: TA100, Metabolic Activation: RAT, LIVER, S-9, PHENOBARBITAL AND BETA-NAPHTHOFLAVONE, Method: STANDARD PLATE) “inactive; negative”; (Test System: AMES SALMONELLA TYPHIMURIUM, Strain/Indicator: TA102, Metabolic Activation: NONE, Method: STANDARD PLATE) “inactive; negative”; (Test System: AMES SALMONELLA TYPHIMURIUM, Strain/Indicator: TA102, Metabolic Activation: RAT, LIVER, S-9, PHENOBARBITAL AND 5,6-BENZOFLAVONE, Method: STANDARD PLATE) “inactive; negative”; (Test System: AMES SALMONELLA TYPHIMURIUM, Strain/Indicator: TA102, Metabolic Activation: RAT, LIVER, S-9, PHENOBARBITAL AND BETA-NAPHTHOFLAVONE, Method: STANDARD PLATE) “inactive; negative”.
In the case of `O=[N+]([O-])c1ccc2c3c(cccc13)C=C2`, the mutagenic call under setting [3] was “active; positive”.
With `CC(C)CCO`, the mutagenic call reads like this: (Test System: CHINESE HAMSTER V-79, Strain/Indicator: V-79 (HPRT)/6-THIOGUANINE, Metabolic Activation: NONE, Method: STANDARD PLATE) “inactive; negative”; (Test System: CHINESE HAMSTER V-79, Strain/Indicator: V-79 (HPRT)/6-THIOGUANINE, Metabolic Activation: RAT LIVER S-9, Method: STANDARD PLATE) “inactive; negative”; (Test System: CHINESE HAMSTER V-79 CELLS, Strain/Indicator: V-79 CELLS (HPRT)/6-THIOGUANINE, Metabolic Activation: NONE, Method: PREINCUBATION) “inactive; negative”; (Test System: CHINESE HAMSTER V-79 CELLS, Strain/Indicator: V-79 CELLS (HPRT)/6-THIOGUANINE, Metabolic Activation: S-9 (3%), Method: PREINCUBATION) “inactive; negative”.
`CCCCC1CO1` (centres undefined): the mutagenic call was “inactive; negative” under setting [4] and “inactive; negative” under setting [5].
In the case of `COC1=C(OC)C(=O)C(C)=CC1=O`, the mutagenic call is, setting by setting: under setting [1], “inactive; negative”; (Test System: AMES SALMONELLA TYPHIMURIUM, Strain/Indicator: TA98, Metabolic Activation: RAT, LIVER, S-9, PHENOBARBITAL AND 5,6-BENZOFLAVONE, Method: PREINCUBATION) “inactive; negative”; under setting [2], “inactive; negative”; (Test System: AMES SALMONELLA TYPHIMURIUM, Strain/Indicator: TA100, Metabolic Activation: RAT, LIVER, S-9, PHENOBARBITAL AND 5,6-BENZOFLAVONE, Method: PREINCUBATION) “inactive; negative”; (Test System: AMES SALMONELLA TYPHIMURIUM, Strain/Indicator: TA102, Metabolic Activation: NONE, Method: PREINCUBATION) “inactive; negative”; (Test System: AMES SALMONELLA TYPHIMURIUM, Strain/Indicator: TA102, Metabolic Activation: RAT, LIVER, S-9, PHENOBARBITAL AND 5,6-BENZOFLAVONE, Method: PREINCUBATION) “inactive; negative”. Moreover, the mutagenic call (Test System: AMES SALMONELLA TYPHIMURIUM, Strain/Indicator: TA104, Metabolic Activation: NONE, Method: PREINCUBATION) is “inactive; negative”; the mutagenic call (Test System: AMES SALMONELLA TYPHIMURIUM, Strain/Indicator: TA104, Metabolic Activation: RAT, LIVER, S-9, PHENOBARBITAL AND 5,6-BENZOFLAVONE, Method: PREINCUBATION) is “inactive; negative”; the mutagenic call (Test System: AMES SALMONELLA TYPHIMURIUM, Strain/Indicator: TA2637, Metabolic Activation: NONE, Method: PREINCUBATION) is “inactive; negative”; the mutagenic call (Test System: AMES SALMONELLA TYPHIMURIUM, Strain/Indicator: TA2637, Metabolic Activation: RAT, LIVER, S-9, PHENOBARBITAL AND 5,6-BENZOFLAVONE, Method: PREINCUBATION) was “inactive; negative”.
`C[C@H](CCC(=O)NCCS(=O)(=O)O)[C@H]1CC[C@H]2[C@@H]3C[C@H](O)[C@@H]4C[C@H](O)CC[C@]4(C)[C@H]3CC[C@]12C`: the mutagenic call reads like this: under setting [3], “inactive; negative”; under setting [6], “inactive; negative”; under setting [4], “inactive; negative”; under setting [7], “inactive; negative”; under setting [5], “inactive; negative”; under setting [8], “inactive; negative”. In addition, the mutagenic call runs as follows: under setting [9], “inactive; negative”; under setting [10], “inactive; negative”; (Test System: AMES SALMONELLA TYPHIMURIUM, Strain/Indicator: TA1538, Metabolic Activation: NONE, Method: STANDARD PLATE) “inactive; negative”; (Test System: AMES SALMONELLA TYPHIMURIUM, Strain/Indicator: TA1538, Metabolic Activation: RAT, LIVER, S-9, AROCLOR 1254, Method: STANDARD PLATE) “inactive; negative”.
As to `CC(C)C[C@H](NC(=O)[C@H](Cc1ccccc1)NC(=O)CNC(=O)CN)C(=O)O` (H-GGFL-OH), the mutagenic call was “inactive; negative” under setting [3]; “inactive; negative” under setting [6]; “inactive; negative” under setting [4]; “inactive; negative” under setting [7]; “inactive; negative” under setting [5]; “inactive; negative” under setting [8]. The mutagenic call runs as follows: under setting [9], “inactive; negative”; under setting [10], “inactive; negative”.
In the case of `CCCCc1c(N)ccc2ccccc12`, the mutagenic call runs as follows: under setting [3], “inactive; negative”; (Test System: AMES SALMONELLA TYPHIMURIUM, Strain/Indicator: TA98, Metabolic Activation: RAT LIVER S-9, AROCLOR, Method: STANDARD PLATE) “active; positive”; under setting [4], “inactive; negative”; (Test System: AMES SALMONELLA TYPHIMURIUM, Strain/Indicator: TA100, Metabolic Activation: RAT LIVER S-9, AROCLOR, Method: STANDARD PLATE) “active; positive”.

The values above are taken from PubChem BioAssay AID1259407 (Chemical Carcinogenesis Research Information System (CCRIS), 2018).
